The target of data set [1] is T1, Peptidyl-prolyl cis-trans isomerase FKBP1A (Homo sapiens, UniProt P62942). The data set is described as follows: Inhibition of [3H]-FK506 binding to recombinant human His6-tagged FKBP12 pretreated for 10 mins followed by [3H]-FK506 addition and measured after 1.5 hrs by microbeta scintillation counting method.
Data set [2] in a line: Apparent terminal half life in Sprague-Dawley rat at 2.5 mg/kg, iv administered as bolus dose by mass spectrometric analysis. The class given is ADME, organism-based. As to conditions: in vivo, read-out: betat1/2(app) (converted).
The next data set relates to Saccharomyces cerevisiae. Briefly: Inhibition of FKBP12 in yeast assessed as reduction in cell proliferation.
Data set [3] concerns the target T1, Peptidyl-prolyl cis-trans isomerase FKBP1A. Briefly: Inhibition of recombinant human FKBP12 expressed in Escherichia coli using succinyl-Ala-Phe-Pro-Phe-4-nitroanilide as substrate measured after 5 to 10 mins by spectrophotometric method.
The nature of data set [4]: Half life in human administered as oral dose. The class given is ADME, organism-based. As to conditions: in vivo.

T1 sequence (P62942 whole entry): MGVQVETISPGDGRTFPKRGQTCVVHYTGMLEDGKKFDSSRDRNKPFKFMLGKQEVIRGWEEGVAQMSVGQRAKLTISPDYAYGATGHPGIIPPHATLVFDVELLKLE

In general, IC50 refers to the midpoint of a concentration-inhibition curve. For `CO[C@H]1C[C@@H]2CC[C@@H](C)[C@@](O)(O2)C(=O)C(=O)N2CCSC[C@H]2C(=O)O[C@H]([C@H](C)C[C@@H]2CC[C@@H](O)[C@H](OC)C2)CC(=O)[C@H](C)/C=C(\C)[C@@H](O)[C@@H](OC)C(=O)[C@H](C)C[C@H](C)/C=C/C=C/C=C/1C`, in data set [1], the IC50 was 53.6 nM. For `CO[C@H]1C[C@@H]2CC[C@@H](C)[C@@](O)(O2)C(=O)C(=O)N2CCCC[C@H]2C(=O)O[C@H]([C@H](C)C[C@@H]2CC[C@H](n3cnnn3)[C@H](OC)C2)CC(=O)[C@H](C)/C=C(\C)[C@@H](O)[C@@H](OC)C(=O)[C@H](C)C[C@H](C)/C=C/C=C/C=C/1C` [ZOTAROLIMUS], the half-life in data set [2] was 9.4 h. One may read the Ki as a dissociation constant, usually derived from enzyme kinetics or from competition with a known ligand. Turning to `CO[C@@H]1C[C@H](C[C@@H](C)[C@@H]2CC(=O)[C@H](C)/C=C(\C)[C@@H](O)[C@@H](OC)C(=O)[C@H](C)C[C@H](C)/C=C/C=C/C=C(\C)[C@@H](c3ccco3)C[C@@H]3CC[C@@H](C)[C@@](O)(O3)C(=O)C(=O)N3CCCC[C@H]3C(=O)O2)CC[C@H]1O`, the IC12 with Saccharomyces cerevisiae was 12.5 nM. The Ki in data set [3] turned out to be 3 nM. The matching figures for `CO[C@@H]1C[C@H](C[C@@H](C)[C@@H]2CC(=O)[C@H](C)/C=C(\C)[C@@H](O)[C@@H](OC)C(=O)[C@H](C)C[C@H](C)/C=C/C=C/C=C(\C)[C@H](c3ccco3)C[C@@H]3CC[C@@H](C)[C@@](O)(O3)C(=O)C(=O)N3CCCC[C@H]3C(=O)O2)CC[C@H]1O`: 3 nM and 6 nM.

For `CO[C@H]1C[C@@H]2CC[C@@H](C)[C@@](O)(O2)C(=O)C(=O)N2CCCC[C@H]2C(=O)O[C@H]([C@H](C)C[C@@H]2CC[C@@H](O)[C@H](OC)C2)CC(=O)[C@H](C)/C=C(\C)[C@@H](O)[C@@H](OC)C(=O)[C@H](C)C[C@H](C)/C=C/C=C/C=C/1C` [SIROLIMUS], the IC12 in the data set with Saccharomyces cerevisiae stood at 7 nM. Further, the half-life was 14 h in data set [2] and 62 to 82 h in data set [4]. On to `COc1ccc([C@H]2C[C@@H]3CC[C@@H](C)[C@@](O)(O3)C(=O)C(=O)N3CCCC[C@H]3C(=O)O[C@H]([C@H](C)C[C@@H]3CC[C@@H](O)[C@H](OC)C3)CC(=O)[C@H](C)/C=C(\C)[C@@H](O)[C@@H](OC)C(=O)[C@H](C)C[C@H](C)/C=C/C=C/C=C/2C)c(OC)c1`, for which the IC12 in the data set with Saccharomyces cerevisiae worked out at 225 nM. Further, the Ki in data set [3] came to 9 nM. As to `CO[C@@H]1C[C@@H]2CC[C@@H](C)[C@@](O)(O2)C(=O)C(=O)N2CCCC[C@H]2C(=O)O[C@H]([C@H](C)C[C@@H]2CC[C@@H](O)[C@H](OC)C2)CC(=O)[C@H](C)/C=C(\C)[C@@H](O)[C@@H](OC)C(=O)[C@H](C)C[C@H](C)/C=C/C=C/C=C/1C`, the IC12 in the data set on Saccharomyces cerevisiae came out at 20 nM. Turning to `CO[C@@H]1C[C@H](C[C@@H](C)[C@@H]2CC(=O)[C@H](C)/C=C(\C)[C@@H](O)[C@@H](OC)C(=O)[C@H](C)C[C@H](C)/C=C/C=C/C=C(\C)[C@@H](OCc3cccc([N+](=O)[O-])c3)C[C@@H]3CC[C@@H](C)[C@@](O)(O3)C(=O)C(=O)N3CCCC[C@H]3C(=O)O2)CC[C@H]1O`, the IC12 in the data set with Saccharomyces cerevisiae stood at 20 nM. Further, in data set [3], the Ki was found to be 7 nM. As to `CCO[C@H]1C[C@@H]2CC[C@@H](C)[C@@](O)(O2)C(=O)C(=O)N2CCCC[C@H]2C(=O)O[C@H]([C@H](C)C[C@@H]2CC[C@@H](O)[C@H](OC)C2)CC(=O)[C@H](C)/C=C(\C)[C@@H](O)[C@@H](OC)C(=O)[C@H](C)C[C@H](C)/C=C/C=C/C=C/1C`, in the data set with Saccharomyces cerevisiae, the IC12 was found to be 10 nM. For the same compound, in data set [3], the Ki is 3.5 nM. As for `CO[C@@H]1C[C@H](C[C@@H](C)[C@@H]2CC(=O)[C@H](C)/C=C(\C)[C@@H](O)[C@@H](OC)C(=O)[C@H](C)C[C@H](C)/C=C/C=C/C=C(\C)[C@@H](SC)C[C@@H]3CC[C@@H](C)[C@@](O)(O3)C(=O)C(=O)N3CCCC[C@H]3C(=O)O2)CC[C@H]1O`, the IC12 with Saccharomyces cerevisiae came out at 4 nM.

In the case of `COC(=O)N[C@@H]1C[C@@H]2CC[C@@H](C)[C@@](O)(O2)C(=O)C(=O)N2CCCC[C@H]2C(=O)O[C@H]([C@H](C)C[C@@H]2CC[C@@H](O)[C@H](OC)C2)CC(=O)[C@H](C)/C=C(\C)[C@@H](O)[C@@H](OC)C(=O)[C@H](C)C[C@H](C)/C=C/C=C/C=C/1C`, in the data set with Saccharomyces cerevisiae, the IC12 turned out to be 220 nM. Also, the Ki in data set [3] is 3.7 nM.

Regarding `CO[C@@H]1C[C@H](C[C@@H](C)[C@@H]2CC(=O)[C@H](C)/C=C(\C)[C@@H](O)[C@@H](OC)C(=O)[C@H](C)C[C@H](C)/C=C/C=C/C=C(\C)[C@@H](OCc3ccccc3)C[C@@H]3CC[C@@H](C)[C@@](O)(O3)C(=O)C(=O)N3CCCC[C@H]3C(=O)O2)CC[C@H]1O`, the IC12 with Saccharomyces cerevisiae stood at 6 nM. Moreover, in data set [3], the Ki came out at 5 nM.

Take `COc1ccc([C@@H]2C[C@@H]3CC[C@@H](C)[C@@](O)(O3)C(=O)C(=O)N3CCCC[C@H]3C(=O)O[C@H]([C@H](C)C[C@@H]3CC[C@@H](O)[C@H](OC)C3)CC(=O)[C@H](C)/C=C(\C)[C@@H](O)[C@@H](OC)C(=O)[C@H](C)C[C@H](C)/C=C/C=C/C=C/2C)c(OC)c1`: the IC12 in the data set on Saccharomyces cerevisiae came to 400 nM. Moreover, the Ki in data set [3] amounted to 38 nM. For `COC(=O)N[C@H]1C[C@@H]2CC[C@@H](C)[C@@](O)(O2)C(=O)C(=O)N2CCCC[C@H]2C(=O)O[C@H]([C@H](C)C[C@@H]2CC[C@@H](O)[C@H](OC)C2)CC(=O)[C@H](C)/C=C(\C)[C@@H](O)[C@@H](OC)C(=O)[C@H](C)C[C@H](C)/C=C/C=C/C=C/1C`, in the data set on Saccharomyces cerevisiae, the IC12 is 170 nM. In addition, the Ki in data set [3] was determined as 4.5 nM. Taken in the same sequence, the figures for `CO[C@@H]1C[C@H](C[C@@H](C)[C@@H]2CC(=O)[C@H](C)/C=C(\C)[C@@H](O)[C@@H](OC)C(=O)[C@H](C)C[C@H](C)/C=C/C=C/C=C(\C)C(=O)C[C@@H]3CC[C@@H](C)[C@@](O)(O3)C(=O)C(=O)N3CCCC[C@H]3C(=O)O2)CC[C@H]1O` were 210 nM and 29 nM. With `CO[C@@H]1C[C@H](C[C@@H](C)[C@@H]2CC(=O)[C@H](C)/C=C(\C)[C@@H](O)[C@@H](OC)C(=O)[C@H](C)C[C@H](C)/C=C/C=C/C=C(\C)[C@H](c3ccc[nH]3)C[C@@H]3CC[C@@H](C)[C@@](O)(O3)C(=O)C(=O)N3CCCC[C@H]3C(=O)O2)CC[C@H]1O`, the IC12 in the data set on Saccharomyces cerevisiae came out at 28 nM. In data set [3], the Ki came to 1.5 nM. Regarding `CO[C@@H]1C[C@H](C[C@@H](C)[C@@H]2CC(=O)[C@H](C)/C=C(\C)[C@@H](O)[C@@H](OC)C(=O)[C@H](C)C[C@H](C)/C=C/C=C/C=C(\C)[C@@H](c3ccc[nH]3)C[C@@H]3CC[C@@H](C)[C@@](O)(O3)C(=O)C(=O)N3CCCC[C@H]3C(=O)O2)CC[C@H]1O`, the IC12 in the data set on Saccharomyces cerevisiae stood at 28 nM. Moreover, the Ki in data set [3] came out at 10 nM.

With `COc1cc(OC)c([C@@H]2C[C@@H]3CC[C@@H](C)[C@@](O)(O3)C(=O)C(=O)N3CCCC[C@H]3C(=O)O[C@H]([C@H](C)C[C@@H]3CC[C@@H](O)[C@H](OC)C3)CC(=O)[C@H](C)/C=C(\C)[C@@H](O)[C@@H](OC)C(=O)[C@H](C)C[C@H](C)/C=C/C=C/C=C/2C)c(OC)c1`, the IC12 with Saccharomyces cerevisiae was more than 1000 nM. The Ki in data set [3] was determined as 7 nM. Regarding `CO[C@@H]1C[C@H](C[C@@H](C)[C@@H]2CC(=O)[C@H](C)/C=C(\C)[C@@H](O)[C@@H](OC)C(=O)[C@H](C)C[C@H](C)/C=C/C=C/C=C(\C)[C@@H](OCc3ccc(Cl)cc3)C[C@@H]3CC[C@@H](C)[C@@](O)(O3)C(=O)C(=O)N3CCCC[C@H]3C(=O)O2)CC[C@H]1O`, the IC12 with Saccharomyces cerevisiae was 6 nM. The Ki in data set [3] turned out to be 1 nM.

For `CO[C@@H]1C[C@H](C[C@@H](C)[C@@H]2CC(=O)[C@H](C)/C=C(\C)[C@@H](O)[C@@H](OC)C(=O)[C@H](C)C[C@H](C)/C=C/C=C/C=C(\C)[C@H](SC)C[C@@H]3CC[C@@H](C)[C@@](O)(O3)C(=O)C(=O)N3CCCC[C@H]3C(=O)O2)CC[C@H]1O`, in the data set with Saccharomyces cerevisiae, the IC12 came out at 4 nM.

Consider `CO[C@@H]1C[C@H](C[C@@H](C)[C@@H]2CC(=O)[C@H](C)/C=C(\C)[C@@H](O)[C@@H](OC)C(=O)[C@H](C)C[C@H](C)/C=C/C=C/C=C(\C)CC[C@@H]3CC[C@@H](C)[C@@](O)(O3)C(=O)C(=O)N3CCCC[C@H]3C(=O)O2)CC[C@H]1O`, for which the IC12 in the data set on Saccharomyces cerevisiae came to 8 nM.

(Values after ChEMBL document CHEMBL4257468, “Synthesis and biological evaluation of rapamycin-derived, next generation small molecules” (Medchemcomm, 2018).)
